# Patent publication EP0437382A1, “Thimidin derivatives, their preparation and compositions containing them” (RHONE-POULENC SANTE, priority 1990, dated 1991)
# Experiments:
# [1] = test system: virus HIV (LAV-1-BRU); assay: microbe, parasite or virus in culture; format: cell-based; conditions: for Cellules infectées densité optique DO 600: control (0 µg/ml) 0.293
# Protocol: (§1) Dans ce qui suit on décrit les résultats sur l'effet cytopathogène et la multiplication du virus HIV dans une lignée cellulaire permissive (cellules lymphoblastoïdes humaines CEM).
# (§2) Le test est réalisé sur la lignée lymphoblastoïde CEM clone 13. Dans une microplaque de 96 puits on dépose 25 µl/puit d'une solution de produit à tester ou de tampon phosphate isotonique (TPI) dans le cas des contrôles. Les produits sont étudiés à différentes concentrations (souvent 8), à raison de 4 puits par concentration. On ajoute alors 125 µl d'une suspension de cellules CEM dans le milieu RPMI contenant 10 % de sérum de veau foetal, 40 U/ml de pénicilline, 40 µg/ml de streptomycine et 5 µg/ml de polybrène (3500 cellules par puit) et les microplaques sont incubées une heure à 37°C, sous une atmosphère contenant 5 % de gaz carbonique. L'essai est fait en double: une partie sur cellules infectées, pour la détermination de l'activité antivirale et l'autre partie sur cellules non infectées, pour déterminer la cytotoxité des produits. On infecte la première série avec HIV (100 µl par puit d'une suspension de virus LAV-1-BRU contenant 200-300 TCID50) tandis que l'autre série reçoit 100 µl de milieu RPMI tel que défini précédemment. Après 7 jours d'incubation, 175 µl de surnageant sont prélevés et seront utilisés par la suite pour le dosage de la reverse transcriptase. La viabilité cellulaire est déterminée selon une modification de la technique décrite par R. PAUWELS et coll., J. Virol. Meth., 20, 309-321 (1988).
# (§3) Les puits, contenant encore les cellules (infectées ou non infectées), reçoivent 10 µl d'une solution de MTT (méthylthiazoletétrazolium) à 5 mg/ml dans du tampon phosphate isotonique. Pendant une période d'incubation de 4 heures, le MTT est converti en un sel de formazan (bleu) à l'intérieur des cellules vivantes et proportionnellement à leur nombre, alors que rien n'apparaît dans les puits ne contenant plus que des cellules mortes. On ajoute alors 120 µl d'isopropanol (contenant 0,04 mole/l d'acide chlorhydrique) et les microplaques sont agitées jusqu'à la solubilisation du bleu de formazan. […]
# (§4) Dans ces conditions les cellules infectées sont lysées à environ 60-70 % par rapport aux cellules non infectées. On établit la concentration du produit qui inhibe l'effet cytopathogène du virus de 50 % (CE50). On détermine également celle qui inhibe de 50 % la croissance des cellules non infectées (CC50). Le rapport entre CC50 et CE50 est défini comme l'indice de sélectivité antivirale i.
# [2] = Cytotoxicity on non-infected CEM cells (MTT viability); format: cell-based, humaines; conditions: human; non-infected CEM cells, 7 days; read-out: CC50 (concentration qui inhibe de 50 % la croissance des cellules non infectées)
# Protocol: as §1, §2, §3, §4
# [3] = test system: lignée lymphoblastoïde CEM clone 13, cellules non infectées; assay: as above; format: cell-based, humaines; conditions: 7 days, control (0 µg/ml) 0.954
# Protocol: as §1, §2, §3, §4
# [4] = test system: transcriptase inverse du virus HIV; assay: Viral multiplication by reverse transcriptase assay on culture supernatant; format: cell-based; conditions: 0,1 µg/cm³
# Protocol: as §2, with “(1988). […]” for “(1988).”
# [5] = test system: précurseurs granulocytaires/macrophagiques de la moelle osseuse; assay: CFU-G/M test (bone marrow granulocyte/macrophage precursors, clone formation); format: cell-based, humaine; conditions: CFU-GM, human bone marrow, read-out: concentration inhibitrice de 50% de la formation des clones
# From the text: (§5) Enfin, les produits selon l'invention manifestent un intérêt considérable du fait de leur absence de toxicité à des concentrations élevées à l'égard des précurseurs hématopoietiques de la moelle humaine.
# (§6) Il est en effet connu que l'un des problèmes majeurs associés au traitement par certains produits de cette classe, est la toxicité sur les précurseurs erythrocytaires et granulocytaires/macrophagiques de la moelle osseuse, qui se traduit du point de vue clinique dans des sévères anémies et leucopénies [D.D. RICHMAN et al., N. Engl. J. Med., 317, 192-197, (1987). R. YARCHOAN et al., Lancet i, 575-580, (1986)]. Cette toxicité peut être mise en évidence au niveau du laboratoire par des tests in vitro, sur des précurseurs erythrocytaires et granulocytaires/macrophagiques de la moelle osseuse (J.P. SOMMADOSSI et R. CARLISLE, Antimicro. Ag. Chemother., 31, 452-454, (1987). L'étude est mise en oeuvre dans les techniques de D. THIERRY et al., Acta Radiol., 24, 521-526, (1985) et D. METCALF, Hematopoietic Colony Stimulating factors, p 88-89, Elsevier (1984).
# (§7) Dans le test CFU-G/M, la concentration inhibitrice de 50% de la formation des clones est de 30 µg/ml.
# [6] = test system: précurseurs erythrocytaires de la moelle osseuse; assay: BFU-E test (bone marrow erythrocyte precursors); format: cell-based, humaine; conditions: 108 µg/ml, human bone marrow
# From the text: as §5, §6, §7
smiles,measurement,setting,value
"Cc1cn([C@H]2C[C@H](N=[N+]=[N-])[C@@H](CO)O2)c(=O)n(N)c1=O [Exemple 1, azido-3′ amino-3 désoxy-3′ thymidine]",Cellules infectées densité optique DO 600,"[1]; 0.0003 µg/ml, 7 days",0.311
same,Cellules infectées densité optique DO 600,"[1]; 0.001 µg/ml, 7 days",0.359
same,Cellules infectées densité optique DO 600,"[1]; 0.003 µg/ml, 7 days",0.456
same,Cellules infectées densité optique DO 600,"[1]; 0.01 µg/ml, 7 days",0.565
same,Cellules infectées densité optique DO 600,"[1]; 0.03 µg/ml, 7 days",0.577
same,Cellules infectées densité optique DO 600,"[1]; 0.1 µg/ml, 7 days",0.596
same,Cellules infectées densité optique DO 600,"[1]; 0.3 µg/ml, 7 days",0.838
same,Cellules infectées densité optique DO 600,"[1]; 1 µg/ml, 7 days",0.926
same,Cellules infectées densité optique DO 600,"[1]; 3 µg/ml, 7 days",0.865
same,Cellules infectées densité optique DO 600,"[1]; 10 µg/ml, 7 days",0.441
same,Cellules infectées densité optique DO 600,"[1]; 30 µg/ml, 7 days",0.007
same,EC50,"[1]; Human immunodeficiency virus 1, CCRF-CEM, 168 h, infected CEM cells, 7 days, read-out: CE50 (concentration qui inhibe l'effet cytopathogène du virus de 50 %)",0.01 µg/mL
same,indice de sélectivité i = CC50/CE50,"[1]; human, cem cells, 168 h",1000
same,CC50 at 168 h,[2],10 µg/mL
same,cellules non infectées densité optique DO 600,[3]; 0.0003 µg/ml,0.935
same,cellules non infectées densité optique DO 600,[3]; 0.001 µg/ml,0.888
same,cellules non infectées densité optique DO 600,[3]; 0.003 µg/ml,0.882
same,cellules non infectées densité optique DO 600,[3]; 0.01 µg/ml,0.884
same,cellules non infectées densité optique DO 600,[3]; 0.03 µg/ml,0.901
same,cellules non infectées densité optique DO 600,[3]; 0.1 µg/ml,0.928
same,cellules non infectées densité optique DO 600,[3]; 0.3 µg/ml,0.931
same,cellules non infectées densité optique DO 600,[3]; 1 µg/ml,0.909
same,cellules non infectées densité optique DO 600,[3]; 3 µg/ml,0.892
same,cellules non infectées densité optique DO 600,[3]; 10 µg/ml,0.368
same,cellules non infectées densité optique DO 600,[3]; 30 µg/ml,0.004
same,"activité de la transcriptase inverse, coups par minute (cpm)",[4]; untreated infected cultures 204363 cpm,44558 cpm
same,inhibition at 0.1 µg/mL,"[4]; Human immunodeficiency virus 1, CCRF-CEM, 168 h, culture supernatant after 7 days, read-out: % d'inhibition (reverse transcriptase du virus HIV)",80%
same,IC50,[5],30 µg/mL
same,toxicité dans le test BFU-E,[6],dépourvu de toxicité
